Test results reported in ChEMBL document CHEMBL4342498, “Design and Discovery of an Orally Efficacious Spiroindolinone-Based Tankyrase Inhibitor for the Treatment of Colon Cancer” (J Med Chem, 2020).
Converted amounts (≈) assume the structure as drawn.

Tests used:
COLO 320DM [1] = assay: Antiproliferative activity against human COLO320DM cells assessed as inhibition of cell growth measured after 4 days by CellTiter-Glo assay; assay type: functional; conditions: 96 h
[2] = Stability in mouse liver microsomes assessed as parent compound remaining at 1 uM measured after 60 mins in presence of NADPH by LC-MS/MS analysis; assay type: ADME, Microsome; conditions: read-out: Stability
[3] = Permeability of the compound measured after 4 hrs by PAMPA; assay type: ADME; conditions: read-out: permeability
[4] = Protein binding in mouse plasma assessed as unbound fraction at 1 uM measured after 24 hrs by LC-MS/MS analysis; assay type: ADME, cell-free
RKO = assay: Antiproliferative activity against human RKO cells assessed inhibition of cell growth measured after 5 days by MTT assay; assay type: functional; conditions: 120 h
COLO 320DM [5] = assay: Antitumor activity against human COLO320DM cells xenografted in Prkdc-NOD-SCID CB17 mouse assessed as tumor growth inhibition at 300 mg/kg, po administered twice daily for 5 days followed by 2 days interval for 2 cycles relative to control; assay type: functional; conditions: read-out: TGI
COLO 320DM [6] = assay: Antiproliferative activity against human COLO320DM cells assessed inhibition of cell growth measured after 5 days by MTT assay; assay type: functional; conditions: 120 h
[7] = molecular target: Poly [ADP-ribose] polymerase 1 (Homo sapiens, UniProt P09874); assay: Inhibition of recombinant human PARP1 expressed in Escherichia coli assessed as reduction in auto-PARylation using histone as substrate measured after 45 mins in presence of biotinylated-NAD+ by ELISA
[8] = Stability in rat liver microsomes assessed as parent compound remaining at 1 uM measured after 60 mins in presence of NADPH by LC-MS/MS analysis; assay type: ADME, Microsome; conditions: read-out: Stability
COLO 320DM [9] = assay: Antitumor activity against human COLO320DM cells xenografted in Prkdc-NOD-SCID CB17 mouse assessed as tumor growth inhibition at 150 mg/kg, ip administered twice daily for 5 days followed by 2 days interval for 2 cycles relative to control; assay type: functional; conditions: read-out: TGI
[10] = Dose normalized initial plasma concentration in Sprague-Dawley rat at 1 mg/kg, iv; assay type: ADME, organism-based; conditions: in vivo
Tankyrase 1/2 [11] = molecular target: T1, Tankyrase 1/2 (Homo sapiens, UniProt Q9H2K2+O95271); conditions: hek293
T1 sequence (Q9H2K2 whole entry): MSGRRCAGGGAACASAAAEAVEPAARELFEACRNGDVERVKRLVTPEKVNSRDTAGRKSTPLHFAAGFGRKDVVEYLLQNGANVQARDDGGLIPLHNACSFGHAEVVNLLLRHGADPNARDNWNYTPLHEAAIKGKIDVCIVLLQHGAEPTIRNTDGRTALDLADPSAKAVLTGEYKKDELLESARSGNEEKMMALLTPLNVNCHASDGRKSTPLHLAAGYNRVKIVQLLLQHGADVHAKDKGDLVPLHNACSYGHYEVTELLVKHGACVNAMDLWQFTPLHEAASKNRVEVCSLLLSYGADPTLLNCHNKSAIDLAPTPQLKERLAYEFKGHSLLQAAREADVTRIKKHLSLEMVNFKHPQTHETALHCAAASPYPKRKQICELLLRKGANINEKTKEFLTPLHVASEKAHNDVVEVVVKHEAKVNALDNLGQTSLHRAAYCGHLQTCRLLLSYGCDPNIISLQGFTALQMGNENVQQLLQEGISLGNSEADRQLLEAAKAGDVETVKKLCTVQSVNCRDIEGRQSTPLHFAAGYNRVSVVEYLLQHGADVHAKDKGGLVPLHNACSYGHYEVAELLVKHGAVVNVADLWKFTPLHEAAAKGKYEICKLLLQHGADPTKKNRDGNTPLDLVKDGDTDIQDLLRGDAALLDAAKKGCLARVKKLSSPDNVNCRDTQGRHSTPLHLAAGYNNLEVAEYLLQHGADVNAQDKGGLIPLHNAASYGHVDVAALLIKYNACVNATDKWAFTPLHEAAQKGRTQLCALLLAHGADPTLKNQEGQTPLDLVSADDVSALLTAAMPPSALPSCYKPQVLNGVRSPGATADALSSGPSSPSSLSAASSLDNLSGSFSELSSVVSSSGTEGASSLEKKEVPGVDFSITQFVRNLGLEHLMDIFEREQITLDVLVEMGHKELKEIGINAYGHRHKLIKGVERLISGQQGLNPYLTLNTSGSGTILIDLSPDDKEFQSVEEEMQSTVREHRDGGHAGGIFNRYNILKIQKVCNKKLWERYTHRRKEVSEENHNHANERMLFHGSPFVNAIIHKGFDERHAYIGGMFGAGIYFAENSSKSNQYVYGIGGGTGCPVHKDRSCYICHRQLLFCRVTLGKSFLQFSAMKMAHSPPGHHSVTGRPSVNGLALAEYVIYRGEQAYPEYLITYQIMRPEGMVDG
T1 sequence (O95271 whole entry): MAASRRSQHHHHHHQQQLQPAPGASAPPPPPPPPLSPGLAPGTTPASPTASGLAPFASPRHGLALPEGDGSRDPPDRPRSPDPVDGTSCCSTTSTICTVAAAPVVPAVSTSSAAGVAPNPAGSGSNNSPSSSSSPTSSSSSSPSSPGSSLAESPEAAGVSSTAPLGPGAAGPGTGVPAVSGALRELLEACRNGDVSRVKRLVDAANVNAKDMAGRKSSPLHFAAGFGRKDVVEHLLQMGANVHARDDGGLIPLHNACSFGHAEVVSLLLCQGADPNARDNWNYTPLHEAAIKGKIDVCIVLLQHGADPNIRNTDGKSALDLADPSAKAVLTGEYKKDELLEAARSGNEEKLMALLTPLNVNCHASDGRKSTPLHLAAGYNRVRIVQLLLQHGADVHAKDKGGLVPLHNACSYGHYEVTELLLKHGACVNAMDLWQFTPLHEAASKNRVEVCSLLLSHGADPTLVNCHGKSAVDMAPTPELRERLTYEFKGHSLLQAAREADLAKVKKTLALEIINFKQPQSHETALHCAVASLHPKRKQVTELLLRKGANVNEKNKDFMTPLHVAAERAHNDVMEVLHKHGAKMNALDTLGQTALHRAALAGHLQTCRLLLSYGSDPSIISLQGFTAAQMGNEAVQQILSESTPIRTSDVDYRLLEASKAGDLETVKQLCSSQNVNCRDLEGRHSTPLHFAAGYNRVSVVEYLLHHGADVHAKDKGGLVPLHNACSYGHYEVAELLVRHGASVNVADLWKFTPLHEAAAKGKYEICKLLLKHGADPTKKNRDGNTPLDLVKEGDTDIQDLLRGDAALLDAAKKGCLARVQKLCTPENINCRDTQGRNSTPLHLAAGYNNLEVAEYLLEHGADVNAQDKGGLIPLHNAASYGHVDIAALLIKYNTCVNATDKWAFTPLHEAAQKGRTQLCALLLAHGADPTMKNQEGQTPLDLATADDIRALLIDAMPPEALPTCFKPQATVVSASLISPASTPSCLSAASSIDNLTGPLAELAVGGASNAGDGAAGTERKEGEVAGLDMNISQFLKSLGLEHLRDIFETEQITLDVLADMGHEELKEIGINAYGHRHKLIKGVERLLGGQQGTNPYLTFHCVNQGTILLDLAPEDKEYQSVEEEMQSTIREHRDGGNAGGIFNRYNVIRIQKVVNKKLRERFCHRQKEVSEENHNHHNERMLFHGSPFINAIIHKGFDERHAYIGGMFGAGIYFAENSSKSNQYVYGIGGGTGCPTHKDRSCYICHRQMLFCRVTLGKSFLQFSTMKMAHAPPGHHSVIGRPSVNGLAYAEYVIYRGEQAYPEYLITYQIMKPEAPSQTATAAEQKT
Description: Inhibition of TNKS/TNKS2 (unknown origin) expressed in HEK293 cells assessed as reduction in Wnt-signaling measured after 24 hrs by TCF-luciferase reporter gene assay

[12] = Dose normalized AUC (infinity) in Sprague-Dawley rat at 1 mg/kg, iv; assay type: ADME, organism-based; conditions: in vivo
[13] = Stability in human liver microsomes assessed as parent compound remaining at 1 uM measured after 60 mins in presence of NADPH by LC-MS/MS analysis; assay type: ADME, Microsome; conditions: read-out: Stability
Tankyrase 1/2 [14] = molecular target: T1, Tankyrase 1/2
Description: Inhibition of TNKS/TNKS2 (unknown origin) expressed in human DLD1 cells assessed as reduction in Wnt-signaling measured after 24 hrs by TCF-luciferase reporter gene assay

[15] = Protein binding in human plasma assessed as unbound fraction at 1 uM measured after 24 hrs by LC-MS/MS analysis; assay type: ADME, cell-free
[16] = Stability in rat liver microsomes assessed as parent compound remaining at 1 uM measured after 30 mins in presence of NADPH by LC-MS/MS analysis; assay type: ADME, Microsome; conditions: read-out: Stability
[17] = molecular target: Tankyrase 1/2 (Homo sapiens) (UniProt Q9H2K2+O95271); assay: Inhibition of TNKS/TNKS2-mediated WNT/beta-catenin signaling pathway in human COLO320DM cells assessed as upregulation of AXIN2 expression at 0.1 uM measured after 16 hrs by Western blot analysis relative to control; assay type: cell-based
[18] = Stability in human liver microsomes assessed as parent compound remaining at 1 uM measured after 30 mins in presence of NADPH by LC-MS/MS analysis; assay type: ADME, Microsome; conditions: read-out: Stability
[19] = molecular target: T2, Poly [ADP-ribose] polymerase tankyrase-1 (Homo sapiens, UniProt O95271)
T2 sequence (O95271 whole entry): T1 sequence (O95271 whole entry)
Description: Inhibition of recombinant human N-terminal TEV cleavage site-fused/FLAG-poly his-tagged TNKS SAM-PARP domain (1024 to 1327 residues) expressed in Escherichia coli assessed as reduction in auto-PARylation preincubated for 10 mins followed by biotinylated-NAD+ addition and measured after 45 mins by ELISA

[20] = Stability in mouse liver microsomes assessed as parent compound remaining at 1 uM measured after 30 mins in presence of NADPH by LC-MS/MS analysis; assay type: ADME, Microsome; conditions: read-out: Stability
physchem = conditions: phosphate buffered saline, pH 7.4
[21] = molecular target: T3, Poly [ADP-ribose] polymerase tankyrase-2 (Homo sapiens, UniProt Q9H2K2); assay: Inhibition of recombinant human N-terminal TEV cleavage site-fused/FLAG-poly his-tagged TNKS2 ARC5-SAM-PARP domain (613 to 1166 residues) expressed in Escherichia coli assessed as reduction in auto-PARylation preincubated for 10 mins followed by biotinylated-NAD+ addition and measured after 45 mins by ELISA
T3 sequence (Q9H2K2 whole entry): T1 sequence (Q9H2K2 whole entry)

Poly [ADP-ribose] polymerase 1, sequence (P09874 whole entry): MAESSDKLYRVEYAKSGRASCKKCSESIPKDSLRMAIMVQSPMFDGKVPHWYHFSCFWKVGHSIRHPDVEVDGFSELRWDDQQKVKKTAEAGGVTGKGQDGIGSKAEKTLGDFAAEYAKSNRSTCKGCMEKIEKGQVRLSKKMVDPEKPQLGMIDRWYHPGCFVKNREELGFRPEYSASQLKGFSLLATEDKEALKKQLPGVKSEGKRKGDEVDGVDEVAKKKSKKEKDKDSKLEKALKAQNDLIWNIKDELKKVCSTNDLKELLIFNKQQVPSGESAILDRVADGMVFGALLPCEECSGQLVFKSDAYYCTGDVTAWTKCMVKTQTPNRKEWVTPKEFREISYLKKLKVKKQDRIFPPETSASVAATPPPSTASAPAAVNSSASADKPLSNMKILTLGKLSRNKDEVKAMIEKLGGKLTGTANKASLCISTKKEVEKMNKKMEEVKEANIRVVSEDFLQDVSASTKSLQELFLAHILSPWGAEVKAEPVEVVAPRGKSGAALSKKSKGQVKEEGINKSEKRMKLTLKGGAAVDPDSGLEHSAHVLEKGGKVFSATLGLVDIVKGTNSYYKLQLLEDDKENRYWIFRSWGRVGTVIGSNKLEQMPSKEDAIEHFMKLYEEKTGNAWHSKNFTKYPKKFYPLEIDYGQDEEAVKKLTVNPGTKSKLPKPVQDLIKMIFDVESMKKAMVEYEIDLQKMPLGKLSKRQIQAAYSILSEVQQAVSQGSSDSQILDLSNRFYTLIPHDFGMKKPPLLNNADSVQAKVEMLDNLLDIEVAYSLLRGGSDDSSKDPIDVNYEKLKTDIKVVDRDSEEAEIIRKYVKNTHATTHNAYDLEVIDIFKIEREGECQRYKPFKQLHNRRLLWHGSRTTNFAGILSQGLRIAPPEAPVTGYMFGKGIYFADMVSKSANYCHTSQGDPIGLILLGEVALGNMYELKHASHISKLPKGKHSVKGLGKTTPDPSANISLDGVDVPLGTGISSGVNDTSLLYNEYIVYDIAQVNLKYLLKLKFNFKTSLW

Row | SMILES | GI50 (COLO 320DM [1]) [nM] | remaining at 1 h, 1 µM [2] [%] | Papp at 4 h [3] [×10⁻⁶ cm/s] | fraction unbound at 24 h, 1 µM [4] | GI50 (RKO) [nM] | GI50 (COLO 320DM [6]) [nM] | remaining at 1 h, 1 µM [8] [%] | C0/dose [10] [µM] | IC50 (Tankyrase 1/2 [11]) [nM] | AUC/dose [12] [µmol·h/L] | remaining at 1 h, 1 µM [13] [%] | IC50 (Tankyrase 1/2 [14]) [nM] | fraction unbound at 24 h, 1 µM [15] | remaining at 0.5 h, 1 µM [16] [%] | other results
1 | O=c1[nH]c(N2CCC3(CC2)CN(CCO)c2cc(F)cc(F)c23)nc2c1CCCC2 | 1630 | 3.2 to 18.3 | 2 | 0.004 to 0.015 | > 10000 | 450 | 3.2 | 9.84 | 12.1 | 4.42 | 2.2 to 5.9 | 77.6 | 0.004 to 0.015 | 12.8 | inhibition in vivo at 300 mg/kg (COLO 320DM [5]): 51.9%; IC50 [7]: > 100000 nM; inhibition in vivo at 150 mg/kg (COLO 320DM [9]): 47.2%; fold change (FC) [17]: 4.42
2 | CN1CCCc2c1nc(N1CCC3(CC1)CN(CCO)c1cc(F)cc(F)c13)[nH]c2=O | 250 | 0.2 | 3.3 | 0.002 |  |  | 0.2 |  | 2.7 |  | 1.4 | 7 | 0.005 | 0.4 | remaining at 0.5 h, 1 µM [18]: 7.4%; IC50 [19]: 13.6 nM; remaining at 0.5 h, 1 µM [20]: 0.3%; solubility at 1 h, 200 µM (physchem): 40.2 µg/mL (≈ 93.2 µM); IC50 [21]: 21.4 nM
3 | CS(=O)(=O)c1ccc(-c2nnc(/C=C/c3nnc(-c4ccc(C#N)cc4)o3)n2-c2ccccc2Cl)nc1 | 1500 | 95.8 |  | 0.035 | 8900 | 430 |  | 1.54 |  | 0.79 | 100 |  | 0.028 |  | 
